Test results as given in patent US6903235B2, “Pharmaceutical-grade ferric citrate” (Panion & BF Biotech Inc., priority 2003, dated 2005).

Experiment: Stability of the product at 40° C. / 75% RH (ferric citrate assay and ferric assay by titration)
Type: physicochemical
Conditions: Temperature 40° C. ± 2° C., Humidity 75% ± 5% RH
Experimental: 1.1.3. Stability of the Product
0.5 g of ferric citrate, accurately weighed, in 100 mL of water and 5 mL of hydrochloric acid were added in a flask on a water bath until dissolved. 3 g of potassium iodide and 5 mL of hydrochloric acid were added to the flask to form a mixture, and a stopper was inserted in the flask. The mixture was allowed to stand for 15 minutes, and the librated iodine was titrated with 0.1 N sodium thiosulfate solution using a starch test solution as an indicator. A blank test was performed with the same quantities of reagents and in the same manner, and corrections were made if necessary. Each milliliter of 0.1 N sodium thiosulfate is equivalent to 24.496 mg of FeC6H5O7 and each milliliter of 0.1 N sodium thiosulfate is equivalent to 5.585 mg of Iron(III).

Q: For ferric citrate [FeC6H5O7 product], which Ferric assay (1st month) is on record?
A: 17.68%

Q: What about the Ferric citrate assay (1st month) of the same substance?
A: 99.65%

Q: What about the Ferric assay (2nd month) of the same substance?
A: 17.66%

Q: What about the Ferric citrate assay (2nd month) of the same substance?
A: 99.58%

Q: What about the Ferric assay (3rd month) of the same substance?
A: 17.70%

Q: And the Ferric citrate assay (3rd month)?
A: 99.79%

Q: What about the Ferric assay (6th month) of the same substance?
A: 17.81%

Q: What about the Ferric citrate assay (6th month) of the same substance?
A: 100.37%

Q: What about the Ferric assay (Initial) of the same substance?
A: 17.69%

Q: What about the Ferric citrate assay (Initial) of the same substance?
A: 99.70%
